Data from ChEMBL document CHEMBL3507680, “University of Dundee, Gates Library screen for HepG2 cell viability”.

Experiment: Human HepG2 cell viability assay in 384 well format
Format: toxicity, cell-based
Parameters: dose 125 nL, time 70.5 hour; cytotoxicity at 70.5 h: concentration not given beside the values
Details: HepG2 cells, read-out: Inhibition

| Structure (SMILES) | cytotoxicity at 70.5 h |
| --- | --- |
| O=C1CCCN1CCC1CCN(C2CCCNC2)CC1 (stereo not given) | -1.85% |
| COc1ccc(NC(=O)N2CCOCC(CN(C)C)C2)c(C)c1 (stereo not given) | 17.5% |
| CN(Cc1ccno1)c1nc(C2CCCC2)nc2c1cnn2C | -2.09% |
| CCn1ncc2[nH]c(-c3ccc(OC)c(COC)c3)nc21 | -6.61% |
| CCCN(CCO)C(=O)C1CCC(=O)N(Cc2ccc(Cl)cc2)C1 (stereo not given) | -0.953% |
| Cc1nc(N)nc(C)c1CC(=O)N1CCCCC1c1cccc(F)c1 (stereo not given) | -8.87% |
| O=C(C1CC2(CCNCC2)CN1)N1CCN(c2ccccc2)CC1 (stereo not given) | 14.5% |
| CC(=O)N1CCc2[nH]cnc2C12CCN(CC1CCOC1)CC2 (stereo not given) | -5.5% |
| Cn1cnnc1SCC(=O)N1C[C@H]2CC[C@@H]1CN(Cc1cccnc1)C2 | -3.64% |
| CCCc1cc(C(=O)N2CCC3(CCCNC3=O)C2)cs1 (stereo not given) | -0.581% |
| O=C(c1cccnc1O)N1CCOC(Cc2cccc(C(F)(F)F)c2)C1 (stereo not given) | -7% |
| O=C(Cc1cccs1)N1CCCC(CNS(=O)(=O)Cc2ccccc2)C1 (stereo not given) | -5.58% |
| COc1ccccc1OCc1cc(C(=O)N2[C@H](C)CC[C@@H]2C)n[nH]1 | -6.18% |
| CCS(=O)(=O)N1CCCC(c2nccn2Cc2cccnc2)C1 (stereo not given) | -7.4% |
| O=C(Cc1cccnc1)N1C[C@@H]2CC[C@H](C1)N(Cc1ccccc1)C2=O | -7.37% |
| CCc1nc2c(c(NCc3cc(-c4cccnc4)no3)n1)CCNCC2 | 7.07% |
| O=C(O)Cc1cccc(-n2ccnc2-c2ccc(Cl)s2)c1 | -4.96% |
| CC(=O)Nc1ccc(CNC(=O)CNCc2snnc2C)cc1 | 15.4% |
| COCC1(CNc2cc(C(C)C)nc(N)n2)CC1 | 2.2% |
| COc1ccc(CCN2CCCC(CN(C)Cc3[nH]cnc3C)C2)cc1 (stereo not given) | 1.62% |
| CN(CC1CCCCO1)S(=O)(=O)c1cccc(C(=O)N2CCOCC2)c1 (stereo not given) | -10.5% |
| C=C(C)COc1ccccc1CN1CCC(NC(C)=O)CC1 | 25.2% |

| Structure (SMILES) | cytotoxicity at 70.5 h |
| --- | --- |
| Cc1nn(C)c(C)c1-c1ccnc(N(C)Cc2nc(C(C)C)no2)n1 | 3.94% |
| CNc1nc(N2CCN(C3CCCCC3)C(CCO)C2)nc2c1CCC2 (stereo not given) | -3.63% |
| CCN(Cc1ccncc1)c1nc(C)nc2oc(C)nc12 | -5.52% |
| CCc1n[nH]c(C(=O)N2CCN(c3ccc4ccccc4c3)CC2)c1C | -6.66% |
| CCc1[nH]c2c(CNc3cncc(C(=O)N(C)C)n3)cc(F)cc2c1C | 4.01% |
| COc1ccc(Cc2ncc3c(n2)CN(C(=O)C2COCCO2)C3)cc1 (stereo not given) | -3.32% |
| CC(C)=CCN1C[C@H]2CC[C@@H]1CN(S(=O)(=O)c1cccnc1)C2 | 6.15% |
| CCn1ccnc1CN(C)c1cc(C2CC2)ncn1 | -5.12% |
| N[C@H]1CN(C(=O)c2ccccc2Oc2ccccc2)C[C@@H]1C1CC1 | -9.43% |
| CCN1CCC(CC(=O)NCCc2nc(C)c(Cl)s2)CC1 | -6.45% |
| CCN(CC)C(=O)C1CCCN(CC(=O)Nc2c(C)nn(CC)c2C)C1 (stereo not given) | 22.3% |
| CCCNc1ncc(CN2CCC3(CCNC(=O)CC3)CC2)cn1 | -3.92% |
| Cc1ccccc1CN(CCN(C)C)C(=O)c1ccc2nccn2c1 | 0.498% |
| O=C(c1coc(COc2ccccc2F)n1)N1CCC[C@H]1CO | -2.42% |
| CCc1ncc(C(=O)N(C)CC2Cc3ccccc3O2)cn1 (stereo not given) | 25.4% |
| CC(C)c1cc(C(=O)N2CCN(c3ccncc3)CC2)n(C)n1 | -11.9% |
| CC(C)n1cnnc1CN(C)CC1CCCNC1 (stereo not given) | -5.56% |
| CN1C(=O)[C@H]2CC[C@@H]1CN(C(=O)c1sccc1S(N)(=O)=O)C2 | -4.92% |
| CC(C)CCC(=O)N1CCC(c2nnc(CN(C)CCO)n2C)CC1 | -2.45% |
| Cc1c(NC(=O)NC2CN3CCC2CC3)cccc1C(=O)N1CCCC1 (stereo not given) | 37.5% |
| CCOc1ccccc1OCCN(C)Cc1ncnn1CC | -6.09% |
| Cc1cc(N2CCCC(O)(CN(C)C)CC2)nc(-c2ccccc2)n1 (stereo not given) | -4.65% |

| Structure (SMILES) | cytotoxicity at 70.5 h |
| --- | --- |
| CCc1cc(CN2C[C@H]3CC[C@@H]2CN(C2Cc4ccccc4C2)C3)on1 | -2.96% |
| O=C(NCc1cc2n(n1)CCCNC2)c1cn2cc(Cl)ccc2n1 | -2.1% |
| CSCCCN1CCn2nc(CNC(=O)N(C)C)cc2C1 | 0.863% |
| CCOCCn1c(=O)[nH]c2cc(C(=O)N(C)Cc3ccno3)ccc21 | -1.24% |
| O=C(O)[C@@H]1CN(C(=O)CC2CCCC2)C[C@H]1c1ccc(F)cc1 | -6.35% |
| O=C(c1ccc2ccccc2c1)C1CCCN(C(=O)Cn2cncn2)C1 (stereo not given) | -1.71% |
| O=C(c1cccnc1)N1CCC(Oc2cccc(C(F)(F)F)c2)CC1 | -4.72% |
| NCc1n[nH]c(=O)n1-c1cccc(Cl)c1Cl | -3.71% |
| CCC(CO)N(Cc1cccnc1)C(=O)c1ccc(C(F)(F)F)nc1O (stereo not given) | -18.7% |
| CCCn1cc(-c2cc(-c3ccoc3)c(C#N)c(N)n2)c(C)n1 | 5.86% |
| CN1[C@H]2CC[C@@H]1CN(C(=O)c1nnc3n1CCCCC3)CC2 | -9.52% |
| CCCc1nc(C)c(CNc2nc(C)nc3onc(C)c23)s1 | 2.81% |
| CNc1nc(C)c(C(=O)N2CCC(C(O)Cc3ccccc3)CC2)s1 (stereo not given) | -11.8% |
| CCN1CCc2[nH]cnc2C12CCN(C(=O)CCCn1cncn1)CC2 | -1.47% |
| CSc1ccccc1C(=O)N(C)Cc1nncn1C(C)C | -0.541% |
| CC(=O)c1ccccc1-c1nc(CC2CCN(C)CC2)no1 | 16.1% |
| COc1ccc(CN2CCCC(Nc3cccc(F)c3)C2)cc1O (stereo not given) | -2.89% |
| O[C@H]1[C@H](n2cc(-c3cccnc3)nn2)c2ccccc2C12CCNCC2 | 0.63% |
| Cc1cc(CN2CCC(CNC(=O)c3ccc(O)c(Cl)c3)C2)[nH]n1 (stereo not given) | -4.96% |
| CC(=O)N1CCc2c(nc(-c3ccccn3)nc2N(C)CC(O)CO)C1 (stereo not given) | -9.73% |
| COc1ccccc1CN1C(=O)O[C@@H]2CN(c3nccs3)C[C@@H]21 | 1.12% |
| CCn1cc(CN(C)C(=O)c2cccc(CCC(C)(C)O)c2)cn1 | -3.4% |

| Structure (SMILES) | cytotoxicity at 70.5 h |
| --- | --- |
| CCc1cc(NC2CCN(S(C)(=O)=O)CC2)n2nc(C)c(C)c2n1 | -1.04% |
| CN1C(=O)C(c2ccccc2)CC12CCN(CCOCCO)CC2 (stereo not given) | 3.55% |
| COc1cccc(-c2noc(-c3ccc(NCC4CC4)nc3)n2)c1OC | -2.04% |
| CN(C)C(=O)c1ccc2c(c1)N(C)C(CC(=O)NCc1ccno1)CO2 (stereo not given) | -4.48% |
| CC(=O)N1CCc2c(nc(-c3ccncc3)nc2N(C)CC(O)CO)C1 (stereo not given) | -9.59% |
| CN(C)c1ccccc1C(=O)N1C[C@@H](CN2CCOCC2)[C@@H](CO)C1 | -3.02% |
| O=C(Cc1cccnc1)N1CCC(OCc2ccccc2)CC1 | -11.4% |
| Cc1ccc(CN2CCN(CC3CC3)[C@@H]3CS(=O)(=O)C[C@@H]32)cc1C | -6.12% |
| Cn1cc(CCC(=O)N2C[C@H]3CC[C@@H]2CN(Cc2ccccc2)C3)cn1 | -5.6% |
| Cc1cc(CC(=O)N2CCN(CC3CC3)[C@@H]3CS(=O)(=O)C[C@@H]32)ccc1F | 4.69% |
| Cc1ccc(C(=O)N2Cc3ccccc3C2)cc1N1CCNC1=O | -6.89% |
| O=c1cc(CN2CCCC(CCc3c(F)cccc3F)C2)[nH]c(=O)[nH]1 (stereo not given) | -8.15% |
| O=C1[C@H]2CC[C@H](CN(Cc3ccccc3OC(F)F)C2)N1CC1CC1 | -7.82% |
| COc1cccc(CCC2CCCN(C(=O)C3=NN(C)C(=O)CC3)C2)c1 (stereo not given) | -5.36% |
| CN(C)c1ccc(CCNC(=O)C2CCC(=O)N(C3CCCC3)C2)cc1 (stereo not given) | -8% |
| O=C(c1ccc[nH]1)N1CCC2(CC1)C(=O)Nc1ccccc12 | -14.9% |
| COc1cccc(CC2CN(C3CCN(C(C)=O)CC3)CCO2)c1 (stereo not given) | -5.79% |
| CCCc1n[nH]cc1C(=O)N1CCC(c2nccn2CCOC)CC1 | 19% |
| CCS(=O)(=O)N1CCC(c2nnc(CN3CCOCC3)n2C)CC1 | -2.17% |
| Cc1nccnc1CN1CCC2(CCCN(C3CCOCC3)C2=O)C1 (stereo not given) | -2.69% |
| CN(C)CCN(C)C(=O)c1cnc2c(c1)nc(-c1ccccc1Cl)n2C | -5.91% |
| Cc1cc(=O)[nH]c(CCNC(=O)C(c2ccc(F)cc2)N(C)C)n1 (stereo not given) | 4.61% |

| Structure (SMILES) | cytotoxicity at 70.5 h |
| --- | --- |
| CCCc1cc(C(=O)N2CCCC2c2cccnc2)[nH]n1 (stereo not given) | -5.97% |
| CN1C(=O)CC(C(=O)O)C12CCN(Cc1ccc(F)cc1Cl)CC2 (stereo not given) | -9.57% |
| CCc1nnc(CN(C)c2nc(C(C)C)nc3c2cnn3C)o1 | -5.57% |
| O=C(NCc1cc(O)ncn1)C1CCOc2ccccc2C1 (stereo not given) | -7.76% |
| Cn1c(Cn2ccnc2)nnc1C1CCCN(C2CCCCC2)C1 (stereo not given) | -9.84% |
| CCn1c(N)nc2cc(C(=O)NCCc3sccc3C)cnc21 | -4.44% |
| COCc1cc(NCCc2ccc(F)cc2)n2nccc2n1 | -0.706% |
| CCC1c2cccn2CCN1C(=O)c1ccc2nonc2c1 (stereo not given) | -2.25% |
| COC[C@@]12CC[C@@H](N3CCOCC3)C[C@H]1CCN(c1ncccn1)C2 | -10.2% |
| CC(=O)NCC1CCN(CC2CCOc3ccccc3C2)CC1 (stereo not given) | -4.25% |
| Cc1nc(CN2CCCC(CCNS(C)(=O)=O)C2)c[nH]1 (stereo not given) | -11.3% |
| CC(=O)c1cc(CC(=O)NCc2c(F)cccc2F)cs1 | -7.61% |
| CCc1cc(N2CCCNCC2)n2nc(C)c(C)c2n1 | -5.51% |
| Cc1ncccc1OC1(C(=O)NCCNc2ccccc2)CCNCC1 | -5.68% |
| CC(C)n1ccnc1C1CCN(C(=O)c2cc[nH]n2)CC1 | -10.9% |
| Cc1cc(CN2CCOCS2(=O)=O)ccc1F | -7.79% |
| CCOc1ccc2[nH]c(=O)c(CN3CCC(O)CC3)cc2c1 | -7.88% |
| CC(C)(C)N1CC(C(=O)N2CCN(CCc3ccccc3)CC2)CC1=O (stereo not given) | -12.8% |
| CC(C)=CCN1CCC(c2nccn2Cc2cscn2)CC1 | -2.36% |
| CNC(=O)CC1CCN(Cc2nc(-c3cccc(Cl)c3)oc2C)CC1 | -7.93% |
| CSCCC1c2nc[nH]c2CCN1Cc1ccnc2ccccc12 (stereo not given) | -12.3% |
| CCc1nc(N)sc1C(=O)N1CCCC(CCc2ccccc2C)C1 (stereo not given) | -6.29% |
